Here are results for 14 molecules from patent publication US20260001834A1, “COMPOUND OR SALT THEREOF, LIPID COMPOSITION, PHARMACEUTICAL COMPOSITION, AND DELIVERY CARRIER” (FUJIFILM Corporation, priority 2023, published 2026).

Series [1] in a line: Particle diameter and polydispersity index (PdI) of mRNA-encapsulating lipid nanoparticles. In kind it is physicochemical. As to conditions: EPO mRNA-encapsulating lipid nanoparticles, compound:DSPC:cholesterol:DMG-PEG2000=50:10:38.5:1.5; diluted with PBS. The procedure: (§1) The compounds shown in Table 9, 1,2-distearoyl-sn-glycero-3-phosphocholine (product name: COATSOME® MC-8080; NOF corporation) (hereinafter, DSPC), cholesterol (product name: Cholesterol HP; Nippon Seika Co., Ltd.), and 1,2-dimyristoyl-rac-glycero-3-(methylpolyoxyethylene 2000) (hereinafter, DMG-PEG2000) (product name: SUNBRIGHT® GM-020; NOF corporation) were dissolved in ethanol at a molar ratio (mol %) of compounds shown in Table 9:1,2-distearoyl-sn-glycero-3-phosphocholine:cholesterol:DMG-PEG2000=50:10:38.5:1.5 such that the total lipid concentration was 12.5 mmol/L, thereby obtaining an oil phase.
(§2) EPO mRNA (product name: CleanCap EPO mRNA (5moU); TriLink) was diluted with 50 mmol/L citrate buffer having a pH 4.0 such that the weight ratio of total lipid concentration to mRNA concentration is about 20:1, thereby obtaining a water phase. Then, the water phase and the oil phase were mixed together using NanoAssemblr (Precision NanoSystems) such that the volume ratio of water phase:oil phase was 3:1, and the mixed solution was 2-fold diluted with phosphate buffered physiological saline (PBS) or water, thereby obtaining a dispersion liquid of mRNA lipid nanoparticles. The dispersion liquid was dialyzed with 20 mM Tris buffer solution containing 8% sucrose using a dialysis cassette (Slide-A-Lyzer G2, MWCO: 10 kD, Thermo Fisher Scientific) to remove ethanol, thereby obtaining EPO mRNA-encapsulating lipid nanoparticles.
The particle diameter and the polydispersity index (PdI) of the mRNA-encapsulating lipid nanoparticles were obtained by measuring a dispersion liquid of lipid nanoparticles diluted with phosphate buffered physiological saline (PBS) using a particle size analyzer NanoSAQLA (Otsuka Electronics Co., Ltd.).

Series [2] is described as follows: Encapsulation rate of mRNA in lipid nanoparticles. Format: physicochemical. The note with it: EPO mRNA-encapsulating lipid nanoparticles, compound:DSPC:cholesterol:DMG-PEG2000=50:10:38.5:1.5. As for the experimental part: as §1, §2
<Evaluation of Encapsulation Rate of mRNA> (Quantification of Total mRNA Concentration)
EPO mRNA was diluted with MilliQ water to prepare a diluted sample in 2-fold dilution series from 100 μg/mL to 3.1 μg/mL, and a standard solution for calibration was prepared. 50 μL of the standard solution for calibration or the mRNA lipid nanoparticles was mixed with 450 μL of methanol to prepare a measurement solution.
The absorbance of each measurement solution at 260 nm and 330 nm was measured using a UV plate reader (Multiskan Go, Thermo Fisher Scientific), the absorbance at 330 nm was subtracted from the absorbance at 260 nm, and the result was used as the absorbance of each measurement solution. The total water phase nucleic acid concentration was calculated from the calibration curve using the absorbance of each sample measurement solution.
(Quantification of mRNA Concentration in Outer Water Phase)
The concentration of the outer water phase nucleic acid was quantified by a standard addition method using a QuanT-iT RiboGreen RNA Assay Kit (Thermo Fisher Scientific). First, a 20×TE buffer included in the above kit was diluted with water, thereby obtaining a 1×TE buffer. TE represents Tris/EDTA (ethylenediaminetetraacetic acid). EPO mRNA was diluted with a TE buffer such that the final concentration was 0 to 400 ng/mL to prepare a nucleic acid diluted series. 10 μL of mRNA lipid nanoparticles diluted 5-fold with TE buffer and 90 μL of a nucleic acid dilution series were mixed in a 96-well plate, 100 μL of a Ribogreen reagent diluted 200-fold with TE buffer was added to each well, and then fluorescence (excitation wavelength: 485 nm, fluorescence wavelength: 535 nm) was measured using a fluorescence plate reader (Infinite 200 Pro M nano+, TECAN). From the obtained results, the outer water phase nucleic acid concentration of each measurement solution was calculated according to the standard addition method.
(Calculation of Encapsulation Rate)
By using the quantification results of the total mRNA concentration and the mRNA concentration in the outer water phase that were obtained through the above steps, the mRNA encapsulation rate of the mRNA lipid nanoparticles was calculated according to the following Equation.

Series [3] concerns ICR mice. The experiment in a line: EPO expression level in mice after intravenous EPO mRNA lipid nanoparticles (human EPO ELISA of plasma). Format: in vivo. The note with it: mRNA dosage 0.1 mg/kg, plasma 6 hours after administration, Comparative Example set to 1. The procedure: as §1, §2
The dispersion liquid of mRNA lipid nanoparticles prepared in above <Preparation of EPO mRNA-encapsulating lipid nanoparticles> was intravenously administered to ICR mice at a mRNA dosage of 0.1 mg/kg. 6 hours after the administration, blood was collected from the caudal vena cava, thereby obtaining plasma. The human EPO […] was quantified by using the obtained blood plasma and Erythropoietin (EPO) Human Elisa Kit (Abcam.plc). The quantitative value is described as a relative amount of EPO protein in a case where Comparative Example is set to 1.
For orientation: ELISA stands for enzyme-linked immunosorbent assay.

Each structure is given as a SMILES string.

Regarding `CCCCCCCCOC(=O)CCCCCCCCC(CCCCCC)OC(=O)OCCN(CCOC(=O)C(CCCC)CCCCCC)CCN(CC)CC` (stereo not shown) [Compound 1, octyl 6-(2-((2-butyloctanoyl)oxy)ethyl)-3-ethyl-12-hexyl-10-oxo-9,11-dioxa-3,6-diazahenicosan-21-oate], in series [1], the “Particle diameter (nm)” value is 112 nm and the PdI turned out to be 0.03. Besides, the “Nucleic acid encapsulation rate” value in series [2] was determined as 89%.
As for `CCCCCCOC(=O)CCCCCCCCC(CCCCCC)OC(=O)OCCN(CCOC(=O)C(CCCCCC)CCCCCC)CCN(CC)CC` (stereo not shown) [Compound 2, hexyl 3-ethyl-12-hexyl-6-(2-((2-hexyloctanoyl)oxy)ethyl)-10-oxo-9,11-dioxa-3,6-diazahenicosan-21-oate], in series [1], the “Particle diameter (nm)” value is given as 103 nm and the PdI turned out to be 0.03. The “Relative amount of EPO protein (with respect to Comparative Example 1)” value (“Relative amount of EPO protein” for short) in series [3] turned out to be 1.61. The “Nucleic acid encapsulation rate” value in series [2] came out at 90%.
Taken in the same sequence, the figures for `CCCCCCCCC(CCCCCCCC)C(=O)OCCN(CCOC(=O)OC(CCCCCC)CCCC(=O)OCCCCCCC)CCN(CC)CC` (stereo not shown) [Compound 4, heptyl 3-ethyl-12-hexyl-6-(2-((2-octyldecanoyl)oxy)ethyl)-10-oxo-9,11-dioxa-3,6-diazahexadecan-1 6-oate] were 85 nm, 0.12, 3.09 and 90%.
Taken in the same sequence, the figures for `CCCCCCCOC(=O)CCCC(CCCCCC)OC(=O)OCCN(CCOC(=O)CC(CCCCCCC)CCCCCCC)CCN(CC)CC` (stereo not shown) [Compound 6, heptyl 3-ethyl-6-(2-((3-heptyldecanoyl)oxy)ethyl)-12-hexyl-10-oxo-9,11-dioxa-3,6-diazahexadecan-16-oate] were 98 nm, 0.11, 4.91 and 77%.
Taken in the same sequence, the figures for `CCCCCCCCOC(=O)CCCC(CCCCCC)OC(=O)OCCN(CCOC(=O)C(CCCCCCC)CCCCCCC)CCN(CC)CC` (stereo not shown) [Compound 7, octyl 3-ethyl-6-(2-((2-heptylnonanoyl)oxy)ethyl)-12-hexyl-10-oxo-9,11-dioxa-3,6-diazahexadecan-16-oate] were 82 nm, 0.12, 3.82 and 79%.
As for `CCCCCCCCOC(=O)CCCC(CCCCCC)OC(=O)OCCN(CCOC(=O)CC(CCCCCCC)CCCCCCC)CCN(CC)CC` (stereo not shown) [Compound 8, octyl 3-ethyl-6-(2-((3-heptyldecanoyl)oxy)ethyl)-12-hexyl-10-oxo-9,11-dioxa-3,6-diazahexadecan-16-oate], in series [1], the “Particle diameter (nm)” value was determined as 89 nm and the PdI was determined as 0.12. Moreover, the “Relative amount of EPO protein” value in series [3] worked out at 3.79. Moreover, the “Nucleic acid encapsulation rate” value in series [2] was determined as 78%.
Taken in the same sequence, the figures for `CCCCCCCC(CCCCCCC)CC(=O)OCCN(CCOC(=O)OC(CCCCCC)CCCC(=O)OCC(CCCCC)CCCCC)CCN(CC)CC` (stereo not shown) [Compound 9, 2-pentylheptyl 3-ethyl-6-(2-((3-heptyldecanoyl)oxy)ethyl)-12-hexyl-10-oxo-9,11-dioxa-3,6-diazahexadecan-16-oate] were 77 nm, 0.13, 2.30 and 85%.
For `CCCCCCCC(CCCCCCC)CC(=O)OCCN(CCOC(=O)OC(CCCCCC)CCCC(=O)OCC(CCCCCC)CCCCCC)CCN(CC)CC` (stereo not shown) [Compound 10, 2-hexyloctyl 3-ethyl-6-(2-((3-heptyldecanoyl)oxy)ethyl)-12-hexyl-10-oxo-9,11-dioxa-3,6-diazahexadecan-16-oate], in series [1], the “Particle diameter (nm)” value worked out at 75 nm and the PdI is listed as 0.10. Further, in series [3], the “Relative amount of EPO protein” value is on record as 1.72. Further, in series [2], the “Nucleic acid encapsulation rate” value is listed as 86%.
`CCCCCCCCCC(CCCCCCCCC)C(=O)OCCN(CCOC(=O)OC(CCCCCC)CCCC(=O)OCCCCCCC)CCN(CC)CC` (stereo not shown) [Compound 17, heptyl 3-ethyl-12-hexyl-6-(2-((2-nonylundecanoyl)oxy)ethyl)-10-oxo-9,11-dioxa-3,6-diazahexadecan-16-oate]: in series [1], the “Particle diameter (nm)” value worked out at 79 nm and the PdI is given as 0.15. Moreover, the “Relative amount of EPO protein” value in series [3] amounted to 1.91. In addition, the “Nucleic acid encapsulation rate” value in series [2] was 95%.
On the same counts, the results for `CCCCCCCCCCC(CCCCCCCCCC)C(=O)OCCN(CCOC(=O)OC(CCCCCC)CCCC(=O)OCCCCCCC)CCN(CC)CC` (stereo not shown) [Compound 18, heptyl 6-(2-((2-decyldodecanoyl)oxy)ethyl)-3-ethyl-12-hexyl-10-oxo-9,11-dioxa-3,6-diazahexadecan-16-oate] are 79 nm, 0.13, 1.30 and 95%.
Regarding `CCCCCCCCC(CCCCCC)C(=O)OCCN(CCOC(=O)OC(CCCCCC)CCCC(=O)OCCCCCCC)CCN(CC)CC` (stereo not shown) [Compound 19, heptyl 3-ethyl-12-hexyl-6-(2-((2-hexyldecanoyl)oxy)ethyl)-10-oxo-9,11-dioxa-3,6-diazahexadecan-1 6-oate], in series [1], the “Particle diameter (nm)” value is 91 nm and the PdI stood at 0.09. For the same molecule, the “Relative amount of EPO protein” value in series [3] is given as 4.31. Further, the “Nucleic acid encapsulation rate” value in series [2] was 94%.
On the same counts, the results for `CCCCCCCOC(=O)CCCC(CCCCCC)OC(=O)OCCN(CCCN(CC)CC)CCOC(=O)C(CCCCCC)CCCCCC` (stereo not shown) [Compound 20, heptyl 3-ethyl-13-hexyl-7-(2-((2-hexyloctanoyl)oxy)ethyl)-11-oxo-10,12-dioxa-3,7-diazaheptadecan-17-oate] are 137 nm, 0.10, 1.68 and 87%.
On the same counts, the results for `CCCCCCCOC(=O)CCCCC(CCCCCC)OC(=O)OCCN(CCCN(CC)CC)CCOC(=O)C(CCCCCC)CCCCCC` (stereo not shown) [Compound 21, heptyl 3-ethyl-13-hexyl-7-(2-((2-hexyloctanoyl)oxy)ethyl)-11-oxo-10,12-dioxa-3,7-diazaoctadecan-1 8-oate] are 129 nm, 0.12, 1.65 and 89%.
Taken in the same sequence, the figures for `CCCCCCCOC(=O)CCCCC(CCCCCC)OC(=O)OCCN(CCCN(CC)CC)CCOC(=O)C(CCCCCCC)CCCCCCC` (stereo not shown) [Compound 22, heptyl 3-ethyl-7-(2-((2-heptylnonanoyl)oxy)ethyl)-13-hexyl-11-oxo-10,12-dioxa-3,7-diazaoctadecan-18-oate] were 95 nm, 0.10, 6.09 and 94%.
